Columns and labels:
[1] = In vivo inhibition of B-Raf in human A-375 cells xenografted in mouse model assessed as tumor growth inhibition; assay type: functional, cell-based
[2] = test system: M14; assay: Antiproliferative activity against human M14 cells; assay type: functional, cell-based
[3] = test system: Melanoma cell line; assay: Antiproliferative activity against human Melanoma cell line; assay type: functional, cell-based
[4] = test system: SK-MEL-28; assay: Antiproliferative activity against human SK-MEL-28 cells assessed as inhibition of cell viability; assay type: functional, cell-based
[5] = test system: A-375; assay: Antitumor activity against human A-375 cells xenografted in mouse model assessed as tumor growth inhibition at 50 mg/kg, iv relative to control; assay type: functional; design: scale not given: the % may be the effect or the level left
[6] = target: Serine/threonine-protein kinase B-raf (Homo sapiens, UniProt P15056, V600E); assay: Inhibition of B-Raf V600E mutant (unknown origin)
[7] = test system: Malme-3M; assay: Antiproliferative activity against human Malme-3M cells assessed as inhibition of cell viability; assay type: functional, cell-based
[8] = test system: A-375; assay: Antiproliferative activity against human A-375 cells assessed as inhibition of cell viability; assay type: functional, cell-based
[9] = test system: WM 266-4; assay: Antiproliferative activity against human WM266-4 cells by CellTiter-Glo Luminescent Cell Viability Assay; assay type: functional, cell-based
[10] = test system: COLO-829; assay: Antiproliferative activity against human COLO-829 cells by CellTiter-Glo Luminescent Cell Viability Assay; assay type: functional, cell-based
[11] = test system: COLO 205; assay: Antitumor activity against human COLO 205 cells xenografted in mouse model assessed as tumor growth inhibition at 30 mg/kg/day relative to control; assay type: functional; design: scale not given: the % may be the effect or the level left
[12] = test system: A-375; assay: Antiproliferative activity against human A-375 cells by CellTiter-Glo Luminescent Cell Viability Assay; assay type: functional, cell-based
[13] = test system: COLO 205; assay: Antiproliferative activity against human COLO 205 cells by CellTiter-Glo Luminescent Cell Viability Assay; assay type: functional, cell-based
[14] = test system: A-375; assay: Antitumor activity against human A-375 cell xenografted in F344 nude rat model assessed as tumor growth inhibition by measuring T/C ratio at 24.1 mg/kg relative to control; assay type: functional
[15] = test system: SK-MEL-2; assay: Antiproliferative activity against human SK-MEL-2 cells harbouring wild type B-Raf by SRB assay; assay type: functional, cell-based
[16] = test system: HMV-2 cell line; assay: Antiproliferative activity against human HMV-2 cells harbouring B-Raf G469V mutant by SRB assay; assay type: functional, cell-based
[17] = test system: CHL-1; assay: Antiproliferative activity against human CHL-1 cells harbouring wild type B-Raf by SRB assay; assay type: functional, cell-based
[18] = test system: HMCB cell line; assay: Antiproliferative activity against human HMCB cells harbouring wild type B-Raf by SRB assay; assay type: functional, cell-based
[19] = test system: Malme-3M; assay: Antiproliferative activity against human Malme-3M cells harbouring B-Raf V600E mutant by SRB assay; assay type: functional, cell-based
[20] = test system: A-375; assay: Antitumor activity against human A-375 cell xenografted in F344 nude rat model assessed as tumor growth inhibition by measuring T/C ratio at 9.7 mg/kg relative to control; assay type: functional
[21] = test system: A-375; assay: Antiproliferative activity against human A-375 cells harbouring B-Raf V600E mutant by SRB assay; assay type: functional, cell-based
[22] = test system: HT-144; assay: Antiproliferative activity against human HT-144 cells harbouring B-Raf V600E mutant by SRB assay; assay type: functional, cell-based

Work on `OCCn1cc(-c2ccc3c(c2)CC/C3=N/O)c(-c2ccncc2)n1` yielded an IC50 [1] of 0.059 µM.
`Cc1ccc(NC(=O)c2cccc(C(C)(C)C#N)c2)cc1Nc1ccc2ncn(C)c(=O)c2c1` showed an IC50 [2] of 0.1 µM and an IC50 [3] of 10 µM.
Work on `CN(C)CCOc1ccc(-c2n/c(=c3\ccc4c(c3)CCC=4N=O)c(=C3C=CNC=C3)[nH]2)cc1` yielded an IC50 [4] of 0.12 µM, an Activity [5] of 80% and an IC50 [6] of […]. It also gave an IC50 [7] of 0.15 µM and an IC50 [8] of 0.37 µM.
`CCCS(=O)(=O)Nc1ccc(F)c(C(=O)c2c[nH]c3ncc(Cl)cc23)c1F` [PLX-4720] showed an IC50 [9] of 1.5 µM, an IC50 [10] of 1.7 µM and an Activity [11] of 90%. The IC50 [12] was 0.5 µM and the IC50 [13] was 0.31 µM.
`N#Cc1c(Oc2ccc(F)c(NC(=O)Cc3cccc(C(F)(F)F)c3)c2)ccc2nc(NC(=O)C3CC3)sc12` showed a T/C [14] of 12.1%, an IC50 [15] of 0.06 µM and an IC50 [16] of 0.2 µM. For the same compound, the IC50 [17] was 0.00207 µM, the IC50 [18] was 0.35 µM and the IC50 [19] was 0.05 µM. For the same compound, the T/C [20] was 2.1%, the IC50 [21] was 0.16 µM and the IC50 [22] was 0.11 µM.
